Measured values published in patent US9212209B2, “Screening methods for spinal muscular atrophy” (Indiana University Research and Technology Corporation, priority 2012, dated 2015).
Read-outs that look alike come from different tables or passages of the source.

Test system: SMN2-luciferase reporter
Assay: SMN2-luciferase reporter assay (clonal HEK-293 SMN2-luc cells)
Assay type: cell-based, human
Parameters: % activation: concentration or dose not given beside the values
Conditions: for Active / % activation: reporter assay; for Emax: read-out: Max % Activity; for % activation: Table 5
Description: The reporter cell lines were plated at 50,000 cells per well in 96-well plates and incubated overnight. Compounds were added to each well and incubated at 37° C. overnight. The final DMSO concentration was 0.1%. Luciferase activity was assayed using either STEADYGLO (PROMEGA E2510) or DUALGLO (PROMEGA E2920) luciferase using the WALLAC ENVISION multilabel reader. For detailed assay conditions see Table 2A. All data points were transformed from CPS to percent increase over basal expression in the treated control wells (DMSO or H2O as appropriate).
Plates were sealed with porous paper tape and incubated for 24 hours. […] For comparison, data points were transformed from CPS to percent activation over basal expression in the DMSO treated control wells.
For comparison, all data points are expressed as percent increase over basal luciferase expression in the control cells.

[1] = Homo sapiens, HEK293, reporter assay, Table 6, read-out: Ec50
[2] = Homo sapiens, HEK293, reporter assay, Table 6

Structure (SMILES) | Active (Table 6) | EC50 [1] [µM] | Emax [2] [%] | further results
CC(C)(C)c1cc(=O)[nH]c(NC(=O)c2ccc(F)c(Cl)c2)n1 [LDN-212026] | No |  |  | 
CC(C)Cc1cc(C(=O)Nc2ccc(F)c(Cl)c2)no1 [LDN-75879] | Yes | 1.5 | 180 | 
COc1cc2c(c(OC)c1OC)C(c1ccc3ccccc3c1)CC(=O)N2 (centres unmarked) [LDN-212357] | No |  |  | 
CC(/C=C/C(=O)NO)=C\[C@@H](C)C(=O)c1ccc(N(C)C)cc1 [Trichostatin A, trichostatin A, reference compound] |  |  |  | Max. fold increase (cell-based reporter response to known SMN2 modulating compounds): 15 fold; EC50 (cell-based reporter, known SMN2 modulating compounds, read-out: EC50): 0.23 µM
O=C(Nc1nc(C2CCC2)cs1)c1ccc(F)c(Cl)c1 [LDN-212013] | Yes | 0.5 | 100 | 
CC(C)c1cc(NC(=O)Cc2ccc(F)c(Cl)c2)no1 [LDN-211832] | No |  |  | 
CNC(=O)c1ccc2nc(N3CCCCC3)sc2c1 [Compound 79213] |  |  |  | % activation: 90%
CCOc1ccc(Br)cc1C1CC(=O)Nc2cc(OC)c(OC)c(OC)c21 (centres unmarked) [CAL-50] | No |  |  | 
CC(C)(C)c1coc(NC(=O)c2ccc(F)c(Cl)c2)n1 [LDN-211992] | Yes | 0.15 | 100 | 
CC(C)c1cc(C(=O)Nc2ccc(F)c(Cl)c2)nn1C [LDN-211856] | No |  |  | 
CC(C)(C)c1nnc(NC(=O)c2ccc(F)c(Cl)c2)s1 [LDN-211981] | Yes | 5.9 | 100 | 
COc1cc2c(c(OC)c1OC)C(c1coc3ccccc13)CC(=O)N2 (centres unmarked) [LDN-212389] | No/Weak |  |  | 
CC1CC(C(=O)Nc2cnccn2)=NO1 (centres unmarked) [CAL-2] | No |  |  | 
C=C/C(Cl)=C(\CCl)NC(=O)c1cc(C(C)C)on1 [CAL-30] | No |  |  | 
CC(C)c1cc(C(=O)Nc2cc(Cl)ccc2Cl)no1 [CAL-28] | Yes | 0.9 | 59 | 
CCN1C(=O)c2cccc3c(S(=O)(=O)NC4CCCC4)ccc1c23 [Compound 109657] |  |  |  | % activation: 152%
COc1ccc(NC(=O)c2cc(C(C)C)on2)c(OC)c1 [CAL-27] | Yes | 1 | 125 | 
COc1cc2c(c(OC)c1OC)C(c1cc(Cl)ccc1F)N(CCN(C)C)C(=O)N2 (centres unmarked) [LDN-214097] | No |  |  | 
Brc1ccc(OCc2cn3cccnc3n2)c(Br)c1 [Compound 67615] |  |  |  | % activation: 105%
Cc1cc(NC(=O)C2=NOC(C)C2)no1 (centres unmarked) [CAL-3] | No |  |  | 
CN(C(=O)c1cc(C2CC2)on1)c1ccccc1 [CAL-37] | Yes | 30 | 143 | 
COc1cc2c(c(OC)c1)C(c1c(Cl)cccc1Cl)CC(=O)N2 (centres unmarked) [LDN-76515] | No |  |  | 

Structure (SMILES) | Active (Table 6) | EC50 [1] [µM] | Emax [2] [%] | further results
O=C(Nc1nc(-c2ccccc2)cs1)c1ccc(F)c(Cl)c1 [LDN-211983] | No |  |  | 
COc1cc2c(c(OC)c1OC)C(c1ccc(Cl)c(Cl)c1)CC(=O)N2 (centres unmarked) [LDN-212266] | No/Weak |  |  | 
COc1cc2c(c(OC)c1)C(c1cc(Br)ccc1F)CC(=O)N2 (centres unmarked) [LDN-212264] | No |  |  | 
Cc1csc(NC(=O)c2ccc(F)c(Cl)c2)n1 [LDN-211984] | Yes | 2.1 | 200 | 
COc1cc2c(c(OC)c1OCCO)C(c1cc(Cl)ccc1F)CC(=O)N2 (centres unmarked) [LDN-213771] | No |  |  | 
COC1=C2C(=CC(OC)C1OC)NC(=O)CC2c1cc(NC(=O)c2ccccc2)ccc1F (centres unmarked) [LDN-212359] | No |  |  | 
CC(C)(C)C(=O)Nc1nc(COc2ccccc2)cs1 [Compound 109981] |  |  |  | % activation: 98%
O=C(NCCn1ccc2ccccc21)c1ccc2c(c1)OCO2 [Compound 107992] |  |  |  | % activation: 121%
CC(C)c1cc(C(=O)Nc2cccc3ccccc23)no1 [LDN-211827] | No/Weak |  |  | 
COc1cc2c(c(OC)c1OC)C(c1cc(Cl)ccc1F)OC(=O)N2 (centres unmarked) [LDN-213768] | Yes | 5.9 | 150 | 
Cc1ccc(-c2cc(-c3ccccc3Cl)[nH]n2)c(O)c1 [Compound 72939] |  |  |  | % activation: 102%
O=C(Nc1nc(-c2ccccc2)co1)c1ccc(F)c(Cl)c1 [LDN-212011] | No |  |  | 
O=C(Nc1ccc(F)c(Cl)c1)C1=NOC(C2CC2)C1 (centres unmarked) [CAL-10] | Yes | 2 | 250 | 
CCN(CC)CCCNC(=O)c1cc(C2CC2)on1 [CAL-42] | No |  |  | 
COc1cc2c(c(OC)c1OC)C(c1cccc3ccccc13)CC(=O)N2 (centres unmarked) [LDN-212356] | Yes | 43 | 150 | 
CC(C)(C)c1cc(NC(=O)c2cnc3ccccc3c2)no1 [LDN-211906] | Yes | 0.8 | 250 | 
N#Cc1ccsc1NC(=O)CCc1ccccc1 [Compound 110425] |  |  |  | % activation: 93%
COc1cc2c(c(OC)c1OC)C(c1cccc(C(F)(F)F)c1)CC(=O)N2 (centres unmarked) [CAL-55] | No |  |  | 
COc1ccc(-c2cn3cccc(C)c3n2)cc1Br [Compound 32531] |  |  |  | % activation: 108%
COc1cc2c(c(OC)c1OC)C(c1ccccc1F)CC(=O)N2 (centres unmarked) [CAL-22] | No |  |  | 
COCCOc1c(OC)cc2c(c1OC)C(c1cc(Cl)ccc1F)CC(=O)N2 (centres unmarked) [LDN-213772] | No |  |  | 
C=C1CC(c2cccc3ccccc23)c2c(cc(OC)c(OC)c2OC)N1 (centres unmarked) [LDN-212350] | No/Weak |  |  | 

Structure (SMILES) | Active (Table 6) | EC50 [1] [µM] | Emax [2] [%] | further results
O=C(c1cc(C2CC2)on1)N1CCCc2ccccc21 [CAL-36] | No |  |  | 
CC(C)c1cc(C(=O)Nc2ccccc2C(F)(F)F)no1 [CAL-31] | Yes | 16 | 154 | 
COc1ccc(NC(=O)C2=NOC(C)C2)cc1 (centres unmarked) [CAL-4] | Yes | 8 | 211 | 
O=C(Nc1ccc(Cl)cc1)C1=NOC(c2ccccc2)C1 (centres unmarked) [CAL-7] | Yes | 10 | 134 | 
O=C1CCc2cc(C(=O)CSc3ccccc3)ccc2N1 [Compound 98541] |  |  |  | % activation: 124%
CC(C)(C)c1cc(NS(=O)(=O)c2ccc3ccccc3c2)no1 [LDN-211859] | No |  |  | 
COc1cc2c(c(OC)c1OC)C(c1cc(Cl)ccc1F)C(C)C(=O)N2 (centres unmarked) [LDN-214085] | Yes | 6 | 180 | 
COc1cc2c(c(OC)c1OC)C(c1cc(C=N)ccc1F)CC(=O)N2 (centres unmarked) [LDN-212361] | No |  |  | 
CC(C)(C)c1cc(NC(=O)c2ccc3ccccc3c2)no1 [LDN-211854] | Yes | 0.5 | 200 | 
CC(C)(C)c1cc(NC(=O)c2ccc(F)c(Cl)c2)no1 [LDN-211831] | Yes | 3 | 150 | 
Cc1ccc(C(=O)Nc2cc(C(C)(C)C)on2)cc1C [LDN-211912] | Yes | 1.1 | 150 | 
COc1cc2c(c(OC)c1OC)C(c1cccc3ccccc13)CC(=O)N2 (centres unmarked) [LDN-212355] | No/Weak |  |  | 
CC(C)(C)c1cc(NC(=O)c2cnc3ccccc3n2)no1 [LDN-211907] | No/Weak |  |  | 
COc1cc2c(c(OC)c1OCCN1CCOCC1)C(c1cc(Cl)ccc1F)CC(=O)N2 (centres unmarked) [LDN-213770] | No |  |  | 
CC(C)c1nc(C(=O)Nc2ccc(F)c(Cl)c2)co1 [LDN-212015] | Yes | 1.7 | 100 | 
CC(C)(C)c1cc(NC(=O)c2cc3ccccc3[nH]2)no1 [LDN-211911] | Yes | 0.4 | 175 | 
COc1cc2c(c(OC)c1OC)C(c1cccnc1)CC(=O)N2 (centres unmarked) [LDN-76158] | No |  |  | 
CCCC1C(=O)Nc2cc(OC)c(OC)c(OC)c2C1c1cc(Cl)ccc1F (centres unmarked) [LDN-214096] | No |  |  | 
COc1cc2[nH]c(=O)cc(-c3cc(Br)ccc3F)c2c(OC)c1OC [LDN-212265] | No |  |  | 
COc1cc2c(c(OC)c1OC)C(c1ccc(F)c(F)c1)CC(=O)N2 (centres unmarked) [CAL-57] | No |  |  | 
CC(C)c1cc(C(=O)Nc2cccc(Cl)c2)no1 [CAL-25] | Yes | 0.35 | 237 | 
